Source: patent publication US9956319B2, “Compositions useful as antibiofilm or antimicrobial agents and methods using same” (BAYLOR COLLEGE OF MEDICINE, priority 2012, dated 2018)

Assays:
Klebsiella pneumoniae = assay: Bacterial colony counts extracted from impregnated central venous catheters after exposure to bacteria; type: cell-based; conditions: catheter impregnated with 25 mg/ml, 10^5 cfu/ml suspension in TSB, 37° C., 24 hours
Description: (§1) To evaluate the anticolonization/antimicrobial activity of central venous catheters treated with dihydrolipoic acid, segments of 7 French triple lumen polyurethane central venous catheters were impregnated with dihydrolipoic acid using the same patented method described in Example 1 (U.S. Pat. No. 6,589,591) with 25 mg/ml (final solution volume) of the agent. After the impregnation process and drying, Catheter segments were then placed in the impregnating solution at 55° C. with agitation for 1 hour in the dark. Catheter segments were then removed from the solution and dried under a fume hood overnight in the dark. Catheter segments were rinsed with deionized water the next day and let dry for another 18 hours in the dark. After the impregnation process and drying, one-centimeter segments of impregnated catheters were individually placed in 1 ml of 10^5 cfu/ml suspensions of MRSE, MRSA, or K. pneumoniae in trypticase soy broth (TSB) at 37° C. for 24 hours. One-centimeter segments of non-impregnated catheters were also incubated individually in each bacterial suspension at 37° C. for 24 hours as controls. […]
(§2) Aliquots of each suspension and subsequent dilutions were cultured quantitatively.

Pseudomonas aeruginosa = assay: as above; type: cell-based; conditions: catheter impregnated with 100 mg/ml, 10^5 cfu/ml suspension in TSB, 37° C., 24 hours
Description: as §1, with “lipoamide,” for “dihydrolipoic acid,”, “lipoamide” for “dihydrolipoic acid”, “100” for “25”, “P. aeruginosa” for “K. pneumoniae”
as §2

Proteus mirabilis = assay: Bacterial colony counts extracted from impregnated central venous catheters after incubation in bacterial suspension; type: cell-based; conditions: catheter impregnated with 50 mg/ml, 10^5 cfu/ml suspension in TSB, 37° C., 24 hours
Description: (§3) In this example, segments of 7 French triple lumen polyurethane central venous catheters were impregnated with α-lipoic acid using the method described elsewhere (U.S. Pat. No. 6,589,591) and were subjected to zones of inhibition. Briefly, α-lipoic acid was dissolved in 88% formic acid (at a final solution concentration of 50 mg/ml). 85% ortho-Phosphoric acid and glycerol were then added to the solution at 79:8:13 (v/v/v) (formic acid:ortho-phosphoric acid:glycerol). After mixing the solution, 300 mg/ml of potassium chloride was added to the final solution and mixed.
(§4) Catheter segments were then placed in the impregnating solution at 55° C. with agitation for 1 hour in the dark. Catheter segments were then removed from the solution and dried under a fume hood overnight in the dark. Catheter segments were rinsed with deionized water the next day and let dry for another 18 hours in the dark. After the impregnation process and drying, one-centimeter segments of impregnated catheters were individually placed in 1 ml of 10^5 cfu/ml suspensions of methicillin-sensitive Staphylococcus epidermidis (MSSE), methicillin-resistant Staphylococcus epidermidis (MRSE), methicillin-resistant Staphylococcus aureus (MRSA), Klebsiella pneumoniae, Escherichia coli, or Proteus mirabilis in trypticase soy broth (TSB) at 37° C. for 24 hours. One-centimeter segments of non-impregnated catheters were also incubated individually in each bacterial suspension at 37° C. for 24 hours as controls. Catheter segments were removed from each bacterial suspension after this period, shaken to remove excess broth containing free-floating bacteria from their surfaces, placed in 1 ml of normal saline, sonicated for 5 minutes, and vortexed for 30 seconds.
as §2

[1] = tested on: methicillin-sensitive Staphylococcus epidermidis (MSSE); assay: as above; type: cell-based; conditions: catheter impregnated with 50 mg/ml, 10^5 cfu/ml suspension in TSB, 37° C., 24 hours
Description: as §3, §4, §2

Escherichia coli = assay: as above; type: cell-based; conditions: catheter impregnated with 50 mg/ml, 10^5 cfu/ml suspension in TSB, 37° C., 24 hours
Description: as §3, §4, §2

Klebsiella pneumoniae I = assay: as above; type: cell-based; conditions: catheter impregnated with 50 mg/ml, 10^5 cfu/ml suspension in TSB, 37° C., 24 hours
Description: as §3, §4, §2

Klebsielle pneuminiae II = assay: as above; type: cell-based, Klebsiella pneumoniae; conditions: catheter impregnated with 50 mg/ml, 10^5 cfu/ml suspension in TSB, 37° C., 24 hours
Description: as §3
Catheter segments were then placed in the impregnating solution at 55° C. with agitation for 1 hour in the dark. Catheter segments were then removed from the solution and dried under a fume hood overnight in the dark. Catheter segments were rinsed with deionized water the next day and let dry for another 18 hours in the dark. […]
as §2

O=C(O)CCCCC(S)CCS (stereo not shown) [Dihydrolipoic acid, 6,8-dimercaptooctanoic acid]
Mean bacterial colony counts extracted from catheter (Klebsiella pneumoniae): 280000

NC(=O)CCCCC1CCSS1 (stereo not shown) [Lipoamide, lipoamide]
Mean bacterial colony counts extracted from catheter (Pseudomonas aeruginosa): 210000

O=C(O)CCCCC1CCSS1 (stereo not shown) [Lipoic acid, 1,2-dithiolane-3-pentanoic acid]
Bacterial colony counts extracted from central venous catheters (Proteus mirabilis): 0
Bacterial colony counts extracted from central venous catheters [1]: 10
Bacterial colony counts extracted from central venous catheters (Escherichia coli): 1.4 × 10^4
Bacterial colony counts extracted from central venous catheters (Klebsiella pneumoniae I): 1.1 × 10^6
Bacterial colony counts extracted from central venous catheters (Klebsielle pneuminiae II): 9.0 × 10^3
